Data set [1] in a line: Membrane permeability (Papp) across Caco-2 cell monolayer, apical to basolateral. The data set is classed as in vitro ADME. The note with it: human, Caco-2, apical to basolateral, 37° C. The protocol:
(§1) Determination of membrane permeability in all examples described herein was accomplished by the following procedure. This procedure is also used to determine whether a given prodrug falls within the scope of those claims given herein which relate to membrane permeability.
(§2) Caco-2 cells were seeded on Costar™ 12 mm diameter, 0.4 μm pore size transwell filters, and were cultured at 37° C., 5% CO2 in a humidified tissue culture chamber.
(§3) DMEM was equilibrated as a transport buffer in 37° C. water bath an hour before experiment. The cells were then equilibrated in transport buffer for 1 hr at 37° C.
(§4) Dosing solution (10 μM) was prepared by adding a 20 μL aliquot of a 10 mM stock solution of the prodrug to 20 mL of transport buffer.
(§5) Transport across Caco-2 cell monolayer was measured at 37° C., in the apical to basolateral direction (n=3).
(§6) Transport buffer was removed from both apical and basolateral compartment of filters. Dosing solution (0.2 mL) was added to the apical compartment of the cell layers on transwell filters, and 0.8 ml fresh pre-warmed transport buffer was added to basolateral compartment. Timing was started for transport, and at 5, 20, and 60 min after transport started, sample fluid (400 μL) was collected from the basolateral compartment. Fresh transport buffer (400 μL) was added back to the basolateral compartment, and the fluid was thoroughly mixed.
(§7) Transport samples, dosing solution, and standards(100 μL) each were mixed with 100 μl of a 500 ng/ml internal standard (Lansoprazole-D) for LC-MS/MS analysis, and part of each sample (100 μL) was vortexed and transferred into glass LC-MS/MS vials for analysis.
(§8) The apparent permeability coefficient (Papp, cm/sec), otherwise known herein as the membrane permeability, is determined from the following relationship: Papp=J/(ACo) where J (pmol/min) is the transport rate, meaning the rate of prodrug movement through the cell layer, A (cm^2) is the filter surface area, and Co (μM) is the initial dosing concentration.
(§9) The transport rate J, is calculated as the slope of the linear regression fit for the transport amount over time data using Microsoft Excel® 97 SR-2 (Microsoft Corp. Redmond, Wash.).
(§10) Lucifer yellow (LY) was used as a paracellular permeability reference standard to determine integrity of cell layers used in the experiments. LY transport in the apical to basolateral direction was carried out in the same manner as described above. Fluorescence level in basolateral fluid sampled at 5, 20, and 60 min post dose was determined using Fluostar Galaxy (BMG Labtechnologies, Durham, N.C.) at excitation/emission wavelengths of 485/520 nm. A standard curve covering the range from 0.002 to 0.5 mg/mL is constructed to quantify the amount of LY in the transport sample to calculate permeability coefficient (Papp).

Data set [2] is described as follows: Systemic half-life after oral or intravenous administration in rats. Particulars: rats; for half-life: Sprague-Dawley, rat, blood. The data set is classed as in vivo, rats (Sprague-Dawley). The protocol:
(§11) Blood concentrations of the compounds omeprazole, lansoprazole, pantoprazole, rabeprazole, and test compounds were quantified using an achiral liquid chromatography tandem mass spectrometry method (LC-MS/MS). Systemic pharmacokinetic parameters were determined for omeprazole or lansoprazole using non-compartmental analysis in Watson® version 6.3, available from InnaPhase Corporation, Philadelphia, Pa.

The nature of data set [3]: Systemic half-life after oral or intravenous administration in dogs. The data set is classed as in vivo, dogs (beagle). The note with it: for half-life: beagle, dog, blood; for Dog T1/2 Prodrug: half-life of intact prodrug, NC = plasma concentration of prodrug too low to calculate half-life, or undetected. As for the experimental part:
as §11

For data set [4] the following is noted: somewhat buffer dependent, Kromer et al., Ekpe et al., cited from earlier work.
Data set [5] has as its system Caco-2 cells. Briefly: Membrane permeability (Papp) across Caco-2 cell monolayer, apical to basolateral. The data set is classed as in vitro ADME. Particulars: Caco-2, apical to basolateral, 10 μM, 37° C. The protocol: as §1, §2, §3, §4, §5, §6, §7, §8, §9, §10
(Caco-2 monolayers are a common model of the intestinal barrier.)

[6] abbreviates: oral solution, systemic half-life of the proton pump inhibitor, unit inferred, read-out: Rat T1/2 PPI (converted).
The mark [7] stands for this setting: po, Table 2D, read-out: t1/2 (systemic half-life in dogs after oral administration) (converted).
[8] abbreviates: po, oral solution, systemic half-life of the proton pump inhibitor, unit inferred, read-out: Dog T1/2 PPI (converted).
[9] abbreviates: oral solution, systemic half-life of the proton pump inhibitor, unit inferred.

Like-named read-outs stand apart in the source and are kept apart here.

With `COc1ccc2[nH]c([S+]([O-])Cc3ncc(C)c(OC)c3C)nc2c1` (stereo not drawn) [Omeprazole, reference compound], the Papp A→B at 60 min, 10 μM in data set [1] worked out at 13 ×10⁻⁶ cm/s. Besides, the half-life was 9 min in data set [2] (intravenous, equivalent omeprazole dose 1 mg/kg, read-out: Systemic omeprazole half-life (converted)); 18.5 min in data set [2] (setting [6]); 18.6 min in data set [2] (oral, equivalent omeprazole dose 10 mg/kg, read-out: Systemic omeprazole half-life (converted)); 36 min in data set [3] (iv, 1 mg/kg, intravenous, equivalent omeprazole dose 1 mg/kg, read-out: Systemic omeprazole half-life (converted)); 42 min in data set [3] (po, 10 mg/kg, oral, equivalent omeprazole dose 10 mg/kg, read-out: Systemic omeprazole half-life (converted)); 42 min in data set [3] (setting [7]). Also, in data set [3] (setting [8]), the half-life was 41.8 min. Moreover, the “typical half-life (aqueous stability)” value is “about 1 hour” in data set [4] (pH 5) and “about 40 hours” in data set [4] (pH 7).

`COc1ccc2c(c1)nc([S+]([O-])Cc1ncc(C)c(OC)c1C)n2S(=O)(=O)c1ccc(OCC(C)(C)C(=O)O)cc1` (stereo not drawn) [Compound 3] returned a Permeability in data set [5] of 0.38 ×10⁻⁶ cm/s. In data set [2] (setting [9]), this compound showed a Rat T1/2 PPI of 106 min. For the same compound, in data set [3] (oral solution, unit inferred), the Dog T1/2 Prodrug was 18.7 min. Also, the Dog T1/2 PPI in data set [3] (setting [9]) amounted to 48.8 min. Moreover, in data set [3] (oral, Table 2D), the “t1/2 (systemic half-life in dogs after oral administration)” value was 48.6 min.

Compound `COc1ccc2c(c1)nc([S+]([O-])Cc1ncc(C)c(OC)c1C)n2S(=O)(=O)c1c(C)cc(OCC(C)(C)C(=O)O)cc1C` (stereo not drawn) [Compound 4] gave a Permeability in data set [5] of 0.52 ×10⁻⁶ cm/s. Besides, the Rat T1/2 Prodrug in data set [2] (oral solution, half-life of intact prodrug, NC = plasma concentration of prodrug too low to calculate half-life, or undetected, unit inferred) was 20.5 min. Besides, in data set [2] (setting [9]), the Rat T1/2 PPI was found to be 42.5 min. Besides, the Dog T1/2 Prodrug in data set [3] (oral solution, unit inferred) was 75.6 min. In data set [3] (setting [9]), the Dog T1/2 PPI was found to be 50.2 min. Moreover, the “t1/2 (systemic half-life in dogs after oral administration)” value in data set [3] (oral, Table 2D) came to 50.4 min.

In turn, `Cc1c(OCC(F)(F)F)ccnc1C[S+]([O-])c1nc2ccccc2n1S(=O)(=O)c1ccc(CC(=O)O)cc1` (stereo not drawn) [Compound 9] returned a Permeability in data set [5] of 0.34 ×10⁻⁶ cm/s. This compound registered a Rat T1/2 PPI in data set [2] (setting [9]) of 20.5 min. Also, the Dog T1/2 PPI in data set [3] (setting [9]) was 53.6 min. Besides, the “t1/2 (systemic half-life in dogs after oral administration)” value in data set [3] (oral, Table 2D) came to 53.4 min.

For the compound `COc1ccc(C(=O)O)cc1S(=O)(=O)n1c([S+]([O-])Cc2nccc(OCC(F)(F)F)c2C)nc2ccccc21` (stereo not drawn) [Compound 14], the Rat T1/2 PPI in data set [2] (setting [9]) stood at 32.2 min. Also, the Dog T1/2 Prodrug in data set [3] (oral solution, unit inferred) was 7.08 min. In data set [3] (setting [9]), the Dog T1/2 PPI was 83.4 min.

Compound `Cc1c(OCC(F)(F)F)ccnc1C[S+]([O-])c1nc2ccccc2n1S(=O)(=O)c1cccc(C(=O)O)c1` (stereo not drawn) [Compound 7] returned a Permeability in data set [5] of 0.16 ×10⁻⁶ cm/s. For the same compound, the Rat T1/2 PPI in data set [2] (setting [9]) worked out at 116 min. In addition, in data set [3] (oral solution, unit inferred), the Dog T1/2 Prodrug is 12.4 min. The Dog T1/2 PPI in data set [3] (setting [9]) was 53.6 min. In data set [3] (oral, Table 2D), the “t1/2 (systemic half-life in dogs after oral administration)” value came out at 53.4 min.

On to `COc1ccc2c(c1)nc([S+]([O-])Cc1ncc(C)c(OC)c1C)n2S(=O)(=O)c1ccc(CC(=O)O)cc1` (stereo not drawn) [Compound 5], for which the Permeability in data set [5] amounted to 0.17 ×10⁻⁶ cm/s. The Rat T1/2 PPI in data set [2] (setting [9]) was 102 min. Also, the Dog T1/2 Prodrug in data set [3] (oral solution, unit inferred) is 16.1 min. The compound further registered a Dog T1/2 PPI in data set [3] (setting [9]) of 61.8 min. For the same compound, the “t1/2 (systemic half-life in dogs after oral administration)” value in data set [3] (oral, Table 2D) was 60 min.

Consider `COc1ccnc(C[S+]([O-])c2nc3cc(OC(F)F)ccc3n2S(=O)(=O)c2cc(C(=O)O)ccc2C)c1OC` (stereo not drawn) [Compound 29], for which the Rat T1/2 PPI in data set [2] (setting [9]) was determined as 60.6 min. In data set [3] (setting [9]), this compound had a Dog T1/2 PPI of 57.5 min.

For the compound `COc1ccc2c(c1)nc([S+]([O-])Cc1ncc(C)c(OC)c1C)n2S(=O)(=O)c1ccc(OCC(=O)O)c(C(=O)O)c1` (stereo not drawn) [Compound 23], in data set [2] (setting [9]), the Rat T1/2 PPI amounted to 163 min. Also, in data set [3] (setting [9]), the Dog T1/2 PPI was 73.2 min.

In data set [2] (setting [9]), `COc1ccc2c(c1)nc([S+]([O-])Cc1ncc(C)c(OC)c1C)n2S(=O)(=O)c1ccc(OCC(=O)O)c(OCC(=O)O)c1` (stereo not drawn) [Compound 24] yielded a Rat T1/2 PPI of 23 min. In data set [3] (setting [9]), this compound gave a Dog T1/2 PPI of 82.2 min.

In data set [5], `COc1ccc2c(c1)nc([S+]([O-])Cc1ncc(C)c(OC)c1C)n2S(=O)(=O)c1c(C)cc(OCC(=O)O)cc1C` (stereo not drawn) [Compound 2] displayed a Permeability of 0.054 ×10⁻⁶ cm/s. In addition, the Dog T1/2 Prodrug in data set [3] (oral solution, unit inferred) was 6.78 min. This compound also came in with a Dog T1/2 PPI in data set [3] (setting [9]) of 96.6 min. For the same compound, the “t1/2 (systemic half-life in dogs after oral administration)” value in data set [3] (oral, Table 2D) came out at 96 min.

`Cc1ccc(C(=O)O)cc1S(=O)(=O)n1c([S+]([O-])Cc2nccc(OCC(F)(F)F)c2C)nc2ccccc21` (stereo not drawn) [Compound 13] gave a Rat T1/2 PPI in data set [2] (setting [9]) of 141 min. Moreover, the Dog T1/2 Prodrug in data set [3] (oral solution, unit inferred) was 7.32 min. The same compound gave a Dog T1/2 PPI in data set [3] (setting [9]) of 106 min.

In data set [5], `COc1ccc(S(=O)(=O)n2c([S+]([O-])Cc3nccc(OCC(F)(F)F)c3C)nc3ccccc32)cc1C(=O)O` (stereo not drawn) [Compound 8] gave a Permeability of 0.23 ×10⁻⁶ cm/s. The same compound gave a Rat T1/2 PPI in data set [2] (setting [9]) of 108 min. In addition, the Dog T1/2 PPI in data set [3] (setting [9]) is 64.8 min. Further, the “t1/2 (systemic half-life in dogs after oral administration)” value in data set [3] (oral, Table 2D) was 66 min.

With `Cc1c(OCC(F)(F)F)ccnc1C[S+]([O-])c1nc2ccccc2[nH]1` (stereo not drawn) [Lansoprazole, reference compound], the apical-to-basolateral permeability (Papp A→B) at 60 min, 10 μM in data set [1] was determined as 15 ×10⁻⁶ cm/s. Moreover, the values for the half-life in data set [2] (setting [6]), in data set [3] (setting [7]) and in data set [3] (setting [8]) were 30.6 min, 34.2 min and 34.4 min, respectively.

For the compound `COc1ccc2c(c1)nc([S+]([O-])Cc1ncc(C)c(OC)c1C)n2S(=O)(=O)c1cccc(C(=O)O)c1` (stereo not drawn) [Compound 6], the Permeability in data set [5] is 0.067 ×10⁻⁶ cm/s. Further, in data set [2] (setting [9]), the Rat T1/2 PPI came out at 116 min. For the same compound, the Dog T1/2 Prodrug in data set [3] (oral solution, unit inferred) is 18.2 min. This compound registered a Dog T1/2 PPI in data set [3] (setting [9]) of 115 min. The “t1/2 (systemic half-life in dogs after oral administration)” value in data set [3] (oral, Table 2D) was determined as 114 min.

The compound `COc1ccc2c(c1)nc([S+]([O-])Cc1ncc(C)c(OC)c1C)n2S(=O)(=O)c1cc(C(=O)O)ccc1C` (stereo not drawn) [Compound 27] yielded a Rat T1/2 PPI in data set [2] (setting [9]) of 130 min. Moreover, the Dog T1/2 Prodrug in data set [3] (oral solution, unit inferred) is 7.02 min. Moreover, the Dog T1/2 PPI in data set [3] (setting [9]) is 66 min.

The compound `Cc1c(OCC(F)(F)F)ccnc1C[S+]([O-])c1nc2ccccc2n1S(=O)(=O)c1ccc(OCC(C)(C)C(=O)O)cc1` (stereo not drawn) [Compound 11] registered a Rat T1/2 PPI in data set [2] (setting [9]) of 56 min. The compound further displayed a Dog T1/2 PPI in data set [3] (setting [9]) of 52.4 min.

The term Papp A→B denotes how fast a substance crosses the layer from the apical side. A higher Papp A→B goes with ready permeation.

The record behind these values is US20050075371A1, “Methods and compositions for the oral administration of prodrugs of proton pump inhibitors” (ALLERGAN, INC., priority 2003, published 2005).
